Values after ≈ are worked out from the molar mass of the structure shown. Where two headings read alike, the source gives them in different places.
Tests used:
saMenB = saMenB (Staphylococcus aureus, UniProt Q5HH38); assay: Isothermal titration calorimetry with saMenB; type: binding, S. aureus
[1] = tested on: Enterococcus faecium (ATCC 19434); assay: MIC, E. faecium
M. tuberculosis = conditions: ref Li, X., et al. ACS Med Chem Lett, 2011; cited from earlier work
[2] = tested on: Haemophilus influenzae (ATCC 49427); assay: MIC, H. influenzae; conditions: for MIC: Haemophilus influenzae
MRSA cells [3] = assay: DHNA level in treated MRSA cells by LC/UV/MS; conditions: MRSA cells treated with 8 µg/mL for 18 hr
E. coli (ATCC 25922) = assay: MIC, E. coli; conditions: for MIC: Escherichia coli
[4] = tested on: Proteus mirabilis (ATCC 35659); assay: MIC, P. mirabilis; conditions: for MIC: Proteus mirabilis
MRSA [5] = assay: Agar MIC and colony morphology on tryptic soy agar; type: cell-based, Staphylococcus aureus
MSSA (ATCC 25923) = assay: MIC, broth, methicillin-sensitive S. aureus; conditions: for MIC: Staphylococcus aureus, ATCC25923|MSSA, read-out: MIC MSSA; for MIC MSSA: modal value of experimental triplicates
[6] = tested on: Bacillus subtilis (ATCC 6051); assay: MIC, B. subtilis
MRSA [7] = assay: Neutropenic thigh MRSA infection mouse model; type: in vivo, Swiss Webster mice; conditions: for Reduction of bacterial load in thigh: neutropenic mice, 100 mg/kg SC at 1 and 12 hr post infection
MRSA [8] = assay: Systemic MRSA infection mouse model; type: in vivo, Swiss Webster mice; conditions: mice, IP infection, 100 mg/kg SC at 1, 12 and 24 hr post infection
[9] = tested on: Klebsiella pneumoniae (ATCC 13883); assay: MIC, K. pneumoniae; conditions: for MIC: Klebsiella pneumoniae
[10] = tested on: Pseudomonas aeruginosa (ATCC 27853); assay: MIC, P. aeruginosa; conditions: for MIC: Pseudomonas aeruginosa
MRSA cells [11] = assay: Menaquinone-8; type: cell-based, Staphylococcus aureus; conditions: 1/10, 1/5, 1/3 and ½ MIC
MRSA (BAA 1762) = assay: MIC, broth, methicillin-resistant S. aureus; conditions: for MIC: Staphylococcus aureus, BAA1762|MRSA; for MIC MRSA: modal value of experimental triplicates

Sequence of saMenB (Q5HH38 whole entry): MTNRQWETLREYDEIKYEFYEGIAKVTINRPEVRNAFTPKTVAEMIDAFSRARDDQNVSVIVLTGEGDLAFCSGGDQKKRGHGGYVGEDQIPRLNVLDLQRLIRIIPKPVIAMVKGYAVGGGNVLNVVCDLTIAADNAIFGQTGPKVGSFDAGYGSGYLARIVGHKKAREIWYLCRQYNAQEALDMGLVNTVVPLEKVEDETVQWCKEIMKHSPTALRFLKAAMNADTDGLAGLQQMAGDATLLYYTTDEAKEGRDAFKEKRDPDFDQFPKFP

**Q.** For `CC(C)(COP(=O)(O)OP(=O)(O)OC[C@H]1O[C@@H](n2cnc3c(N)ncnc32)[C@H](O)[C@@H]1OP(=O)(O)O)[C@@H](O)C(=O)NCCC(=O)NCCS` [CoA, coenzyme A], which Kd (saMenB) is on record?
**A.** The Kd was 25 ± 4 µM.

**Q.** With `COC(=O)C=CC(=O)c1ccc(Cl)cc1` [Compound 1, methyl 4-(4-chlorophenyl)-4-oxobut-2-enoate] as the molecule, how does the MIC ([1]; ATCC19434, read-out: MIC + MK-4) read?
**A.** Its MIC is 31.5 µg/mL.

**Q.** And the MIC ([1]; ATCC19434, read-out: MIC aerobic)?
**A.** Its MIC is 4 µg/mL (≈ 17.8 µM).

**Q.** What about the MIC ([1]; ATCC19434, read-out: MIC anaerobic) of the same molecule?
**A.** The MIC was 1.25 µg/mL (≈ 5.56 µM).

**Q.** What about the MIC ([1]; ATCC19434, read-out: MIC capnophilic) of the same molecule?
**A.** The MIC was 2.5 µg/mL (≈ 11.1 µM).

**Q.** And the MIC aerobic (M. tuberculosis)?
**A.** Its MIC aerobic is 0.64 µg/mL (≈ 2.85 µM).

**Q.** And the MIC capnophilic ([2]; H. influenzae, capnophilic (candle jar))?
**A.** The MIC capnophilic was 0.25 µg/mL (≈ 1.11 µM).

**Q.** And the MIC ([2]; ATCC49427, read-out: MIC + MK-4)?
**A.** Its MIC is > 60 µg/mL.

**Q.** What about the MIC ([2]; ATCC49427, read-out: MIC capnophilic) of the same molecule?
**A.** The MIC was 0.25 µg/mL (≈ 1.11 µM).

**Q.** And the “DHNA in treated cells” value (MRSA cells [3])?
**A.** Its value is “could not be detected”.

**Q.** And the MIC aerobic (E. coli (ATCC 25922); E. coli, aerobic)?
**A.** The MIC aerobic was “no activity”.

**Q.** And the MIC (E. coli (ATCC 25922); ATCC25922, read-out: MIC + MK-4)?
**A.** The MIC was > 60 µg/mL.

**Q.** What about the MIC (E. coli (ATCC 25922); ATCC25922, read-out: MIC aerobic) of the same molecule?
**A.** The MIC was > 60 µg/mL.

**Q.** What about the MIC (E. coli (ATCC 25922); ATCC25922, read-out: MIC anaerobic) of the same molecule?
**A.** Its MIC is 15.5 µg/mL (≈ 69 µM).

**Q.** What about the MIC (E. coli (ATCC 25922); ATCC25922, read-out: MIC capnophilic) of the same molecule?
**A.** Its MIC is 15.5 µg/mL (≈ 69 µM).

**Q.** And the MIC aerobic ([4]; P. mirabilis, aerobic)?
**A.** The MIC aerobic was “no activity”.

**Q.** What about the MIC ([4]; ATCC35659, read-out: MIC + MK-4) of the same molecule?
**A.** The MIC was 31.5 µg/mL.

**Q.** And the MIC ([4]; ATCC35659, read-out: MIC aerobic)?
**A.** The MIC was > 60 µg/mL.

**Q.** And the MIC ([4]; ATCC35659, read-out: MIC anaerobic)?
**A.** The MIC was 12.5 µg/mL (≈ 55.6 µM).

**Q.** What about the MIC ([4]; ATCC35659, read-out: MIC capnophilic) of the same molecule?
**A.** The MIC was 12.5 µg/mL (≈ 55.6 µM).

**Q.** And the Colony morphology (MRSA [5]; MRSA on TSA with 4 µg/mL (½ agar MIC), 48 hr)?
**A.** The Colony morphology was “SCV phenotype”.

**Q.** And the “Growth with MK-4 complementation” value (MRSA [5]; MRSA on TSA with 16 µg/mL (2x agar-MIC) and 10 µM MK-4)?
**A.** Its value is “wild-type growth”.

**Q.** And the “Agar MIC” value (MRSA [5]; MRSA on tryptic soy agar, no growth after 72 hr)?
**A.** Its value is 8 µg/mL.

**Q.** And the MIC (MSSA (ATCC 25923))?
**A.** The MIC was 0.35 µg/mL (≈ 1.56 µM).

**Q.** What about the MIC ([6]; ATCC6051, read-out: MIC + MK-4) of the same molecule?
**A.** The MIC was > 60 µg/mL.

**Q.** And the MIC ([6]; ATCC6051, read-out: MIC aerobic)?
**A.** The MIC was 8 µg/mL (≈ 35.6 µM).

**Q.** And the MIC ([6]; ATCC6051, read-out: MIC anaerobic)?
**A.** Its MIC is 2 µg/mL (≈ 8.9 µM).

**Q.** And the MIC ([6]; ATCC6051, read-out: MIC capnophilic)?
**A.** The MIC was 4 µg/mL (≈ 17.8 µM).

**Q.** What about the “Reduction of bacterial load in thigh” value (MRSA [7]) of the same molecule?
**A.** Its value is 3.1 log CFU/gram tissue.

**Q.** And the “Dose dependence of bacterial burden in thigh” value (MRSA [7]; neutropenic mice, 25, 50 and 100 mg/kg SC)?
**A.** Its value is “dose dependent reduction”.

**Q.** What about the “Survival rate (days post infection)” value (MRSA [8]) of the same molecule?
**A.** Its value is 4.6 days.

**Q.** And the MIC aerobic ([9]; K. pneumoniae, aerobic)?
**A.** Its MIC aerobic is “no activity”.

**Q.** And the MIC anaerobic ([9]; K. pneumoniae, anaerobic (GasPak))?
**A.** Its MIC anaerobic is 62.5 µg/mL (≈ 278 µM).

**Q.** And the MIC ([9]; ATCC13883, read-out: MIC + MK-4)?
**A.** The MIC was > 60 µg/mL.

**Q.** And the MIC ([9]; ATCC13883, read-out: MIC aerobic)?
**A.** Its MIC is > 60 µg/mL.

**Q.** And the MIC ([9]; ATCC13883, read-out: MIC anaerobic)?
**A.** The MIC was 62.5 µg/mL (≈ 278 µM).

**Q.** And the MIC ([9]; ATCC13883, read-out: MIC capnophilic)?
**A.** The MIC was > 60 µg/mL.

**Q.** And the MIC aerobic ([10]; P. aeruginosa, aerobic)?
**A.** The MIC aerobic was “no activity”.

**Q.** And the MIC anaerobic ([10]; P. aeruginosa, anaerobic (GasPak))?
**A.** Its MIC anaerobic is “no activity”.

**Q.** And the MIC capnophilic ([10]; P. aeruginosa, capnophilic (candle jar))?
**A.** The MIC capnophilic was “no activity”.

**Q.** And the MIC ([10]; ATCC27853, read-out: MIC aerobic)?
**A.** The MIC was > 60 µg/mL.

**Q.** And the MIC ([10]; ATCC27853, read-out: MIC anaerobic)?
**A.** Its MIC is > 60 µg/mL.

**Q.** And the MIC ([10]; ATCC27853, read-out: MIC capnophilic)?
**A.** The MIC was > 60 µg/mL.

**Q.** What about the “Change in MK-8 with increasing concentration” value (MRSA cells [11]) of the same molecule?
**A.** The value was “dose dependent decrease”.

**Q.** What about the MIC (MRSA (BAA 1762); read-out: MIC + MK-4) of the same molecule?
**A.** Its MIC is > 60 µg/mL.

**Q.** And the MIC (MRSA (BAA 1762); read-out: MIC MRSA)?
**A.** The MIC was 0.75 µg/mL (≈ 3.34 µM).

**Q.** And the MIC (MRSA (BAA 1762); read-out: MIC aerobic)?
**A.** Its MIC is 0.75 µg/mL (≈ 3.34 µM).

**Q.** What about the MIC (MRSA (BAA 1762); read-out: MIC anaerobic) of the same molecule?
**A.** The MIC was 0.37 µg/mL (≈ 1.65 µM).

**Q.** What about the MIC (MRSA (BAA 1762); read-out: MIC capnophilic) of the same molecule?
**A.** Its MIC is 0.37 µg/mL (≈ 1.65 µM).

**Q.** What does the source list for `COC(=O)C=CC(=O)c1ccc(F)cc1` [Compound 2]?
**A.** MIC MSSA (MSSA (ATCC 25923)): 8 µg/mL (≈ 38.4 µM); MIC MRSA (MRSA (BAA 1762)): 12 µg/mL (≈ 57.6 µM)

**Q.** For `COC(=O)C=CC(=O)c1ccc(Br)cc1` [Compound 3], which “MIC MSSA” value (MSSA (ATCC 25923)) is on record?
**A.** The value was 8 µg/mL (≈ 29.7 µM).

**Q.** What about the “MIC MRSA” value (MRSA (BAA 1762)) of the same molecule?
**A.** Its value is 16 µg/mL (≈ 59.5 µM).

**Q.** With `COC(=O)C=CC(=O)c1ccc([N+](=O)[O-])cc1` [Compound 4] as the molecule, how does the “MIC MSSA” value (MSSA (ATCC 25923)) read?
**A.** The value was 4 µg/mL (≈ 17 µM).

**Q.** And the “MIC MRSA” value (MRSA (BAA 1762))?
**A.** The value was 4 µg/mL (≈ 17 µM).

**Q.** Which results are given for `COC(=O)C=CC(=O)c1ccc(Cl)cc1Cl` [Compound 5]?
**A.** MIC MSSA (MSSA (ATCC 25923)): 1 µg/mL (≈ 3.86 µM); MIC MRSA (MRSA (BAA 1762)): 2 µg/mL (≈ 7.72 µM)

**Q.** Which “MIC MSSA” value (MSSA (ATCC 25923)) does the source give for `O=C(O)C=CC(=O)c1ccc(Cl)cc1` [Compound 6] here?
**A.** Its value is > 60 µg/mL.

**Q.** And the “MIC MRSA” value (MRSA (BAA 1762))?
**A.** The value was > 60 µg/mL.

**Q.** Which results are given for `Cc1onc(-c2ccccc2)c1C(=O)N[C@@H]1C(=O)N2[C@@H]1SC(C)(C)[C@@H]2C(=O)O` [Oxacillin, reference compound]?
**A.** MIC (MSSA (ATCC 25923)): 0.1 µg/mL (≈ 0.249 µM); Reduction of bacterial load in thigh (MRSA [7]): minimal effect; Survival rate (days post infection) (MRSA [8]): 1.5 to 1.6 days; MIC (MRSA (BAA 1762); read-out: MIC MRSA): > 128 µg/mL

**Q.** What does the source list for `CN[C@H](CC(C)C)C(=O)N[C@H]1C(=O)N[C@@H](CC(N)=O)C(=O)N[C@H]2C(=O)N[C@H]3C(=O)N[C@H](C(=O)N[C@H](C(=O)O)c4cc(O)cc(O)c4-c4cc3ccc4O)[C@H](O)c3ccc(c(Cl)c3)Oc3cc2cc(c3O[C@@H]2O[C@H](CO)[C@@H](O)[C@H](O)[C@H]2O[C@H]2C[C@](C)(N)[C@H](O)[C@H](C)O2)Oc2ccc(cc2Cl)[C@H]1O` [Vancomycin, reference compound]?
**A.** MIC (MSSA (ATCC 25923)): 2 µg/mL (≈ 1.38 µM); Reduction of bacterial load in thigh (MRSA [7]): 4.2 log CFU/gram tissue; Survival rate (days post infection) (MRSA [8]): 5.8 days; MIC (MRSA (BAA 1762); read-out: MIC MRSA): 4 µg/mL (≈ 2.76 µM)
